Assay results reported in article PMC8776995 (Frontiers in Chemistry, 2022).
“And” between values parts separate entries of the source, which are not always exact repeats. Equal values may be shown once.

Legend:
H1975 cells = test: CCK-8 antiproliferation assay, H1975; settings: for Inhibitory efficacy: H1975 cells
Experimental: (§1) The compounds were dissolved in DMSO to make a 20 μM stock solution and diluted to the concentration of working solutions with complete growth medium before administration.
(§2) Cells were seeded in 96-well plates: 3,000–5,000 cells/well in 100 ul. One day after seeding, the test compounds at concentration between 1.0 and 16.0 μ M or 0.1% DMSO (as control) were added to cells in triplicate. 48 h later, CCK-8 was added and incubated the plate for 1–4 h in the incubator. The absorbance at 450 nm were measured using a microplate reader (Bio-Tek).

wild-type EGFR = wild-type EGFR (Homo sapiens, UniProt P00533); test: EGFR kinase assay (ELISA); settings: for A450: raw ELISA absorbance
A549 cells = test: CCK-8 antiproliferation assay, A549; settings: for Inhibitory efficacy: A549 cells
Experimental: as §1, §2

PC-9 cells = test: CCK-8 antiproliferation assay, PC-9; settings: for Inhibitory efficacy: single repeats (Repeat 1-3), given as fraction
Experimental: as §1, §2

H460 cells = test: CCK-8 antiproliferation assay, H460; settings: for Inhibitory efficacy: H460 cells
[1] = 1uM, given as fraction, Repeat 1-3
[2] = 2uM, given as fraction, Repeat 1-3
[3] = 4uM, given as fraction, Repeat 1-3
[4] = 8uM, given as fraction, Repeat 1-3
[5] = 16uM, given as fraction, Repeat 1-3

Chain of wild-type EGFR (P00533 25-1210): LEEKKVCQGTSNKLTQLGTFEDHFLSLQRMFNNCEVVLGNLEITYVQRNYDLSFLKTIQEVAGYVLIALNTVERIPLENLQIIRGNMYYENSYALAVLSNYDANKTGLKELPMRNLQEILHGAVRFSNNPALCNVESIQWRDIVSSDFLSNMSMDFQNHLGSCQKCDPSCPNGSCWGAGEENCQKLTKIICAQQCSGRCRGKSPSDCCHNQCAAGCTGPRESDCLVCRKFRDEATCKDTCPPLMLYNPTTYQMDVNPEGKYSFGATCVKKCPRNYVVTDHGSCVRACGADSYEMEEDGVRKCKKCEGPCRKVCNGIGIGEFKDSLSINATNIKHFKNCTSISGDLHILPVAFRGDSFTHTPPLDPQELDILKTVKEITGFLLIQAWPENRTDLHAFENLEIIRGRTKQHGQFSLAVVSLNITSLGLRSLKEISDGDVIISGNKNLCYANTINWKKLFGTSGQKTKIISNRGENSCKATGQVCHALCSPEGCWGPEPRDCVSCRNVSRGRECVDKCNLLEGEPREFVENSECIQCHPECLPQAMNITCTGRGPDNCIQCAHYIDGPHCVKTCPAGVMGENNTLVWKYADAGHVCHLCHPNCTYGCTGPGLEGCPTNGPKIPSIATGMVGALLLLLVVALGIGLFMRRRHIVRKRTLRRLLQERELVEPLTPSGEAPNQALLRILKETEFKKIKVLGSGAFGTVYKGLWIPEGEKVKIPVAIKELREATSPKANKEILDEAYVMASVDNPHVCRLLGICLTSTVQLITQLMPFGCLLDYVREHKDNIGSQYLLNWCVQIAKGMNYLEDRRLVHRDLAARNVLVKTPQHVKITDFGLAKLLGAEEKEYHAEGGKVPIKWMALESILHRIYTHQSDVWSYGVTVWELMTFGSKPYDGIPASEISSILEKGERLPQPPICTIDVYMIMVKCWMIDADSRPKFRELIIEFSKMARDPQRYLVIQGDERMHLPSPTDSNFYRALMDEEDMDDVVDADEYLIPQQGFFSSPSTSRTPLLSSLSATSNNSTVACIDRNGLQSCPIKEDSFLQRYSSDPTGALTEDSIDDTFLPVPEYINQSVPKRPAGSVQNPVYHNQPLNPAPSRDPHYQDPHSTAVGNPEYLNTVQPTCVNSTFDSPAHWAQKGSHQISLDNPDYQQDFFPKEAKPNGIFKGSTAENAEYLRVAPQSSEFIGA

In the case of `COCCOc1cc2ncnc(Nc3cccc(-c4cn(-c5ccc(Br)cc5)nn4)c3)c2cc1OCCOC` [e10, [6,7-Bis-(2-methoxy-ethoxy)-quinazolin-4-yl]-{3-[1-(4-bromo-phenyl)-1H-[1,2,3]triazol-4-yl]-phenyl}-amine], the Inhibitory efficacy (H1975 cells; [1]) is reported as 0.3092 and 0.3364, the Inhibitory efficacy (H1975 cells; [2]) is reported as 0.3838 and 0.3364 and the Inhibitory efficacy (H1975 cells; [3]) is reported as 0.4598 and 0.4892. The Inhibitory efficacy (H1975 cells; [4]) was 0.5696 and 0.4885, the Inhibitory efficacy (H1975 cells; [5]) was 0.5545 and 0.4835 and the IC50 (H1975 cells; Homo sapiens, NCI-H1975, 48 h, read-out: IC50 (μM) H1975, CCK-8, 48 h, average ± SD of three independent experiments) was 6.36 ± 4.21 µM. For the same molecule, the inhibition at 1 µM (H1975 cells; Homo sapiens, NCI-H1975, read-out: Inhibitory efficacy, H1975 cells, 1uM, given as fraction, Repeat 1-3) was 39.4%, the inhibition at 2 µM (H1975 cells; Homo sapiens, NCI-H1975, read-out: Inhibitory efficacy, H1975 cells, 2uM, given as fraction, Repeat 1-3) was 33.8% and the inhibition at 4 µM (H1975 cells; Homo sapiens, NCI-H1975, read-out: Inhibitory efficacy, H1975 cells, 4uM, given as fraction, Repeat 1-3) was 51.4%. The inhibition at 8 µM (H1975 cells; Homo sapiens, NCI-H1975, read-out: Inhibitory efficacy, H1975 cells, 8uM, given as fraction, Repeat 1-3) was 54.1%, the inhibition at 16 µM (H1975 cells; Homo sapiens, NCI-H1975, read-out: Inhibitory efficacy, H1975 cells, 16uM, given as fraction, Repeat 1-3) was 67.4% and the IC50 (wild-type EGFR; IC50 (μM) EGFR, ELISA, 3 μmol/L ATP) was 2.13 µM. For the same molecule, the inhibition at 30 pM (wild-type EGFR; concentration 0.03 nM, one value per replicate column) was 4.76%, the Inhibition (wild-type EGFR; concentration 0.03 nM, one value per replicate column, 3e-05 µM) was 5.109 and the inhibition at 0.0003 µM (wild-type EGFR; concentration 0.3 nM, one value per replicate column) was 11.4%. For the same molecule, the Inhibition (wild-type EGFR; concentration 0.3 nM, one value per replicate column, 0.0003 µM) was 10.9489, the inhibition at 0.003 µM (wild-type EGFR; concentration 3 nM, one value per replicate column) was 15.7% and the Inhibition (wild-type EGFR; concentration 3 nM, one value per replicate column, 0.003 µM) was 10.9489. The inhibition at 0.03 µM (wild-type EGFR; concentration 30 nM, one value per replicate column) was 21.1%, the Inhibition (wild-type EGFR; concentration 30 nM, one value per replicate column, 0.03 µM) was 11.3139 and the inhibition at 0.3 µM (wild-type EGFR; concentration 300 nM, one value per replicate column) was 36.5%. For the same molecule, the Inhibition (wild-type EGFR; concentration 300 nM, one value per replicate column, 0.3 µM) was 39.9635, the inhibition at 3 µM (wild-type EGFR; concentration 3000 nM, one value per replicate column) was 38.4% and the Inhibition (wild-type EGFR; concentration 3000 nM, one value per replicate column, 3 µM) was 48.1752. For the same molecule, the inhibition at 30 µM (wild-type EGFR; concentration 30000 nM, one value per replicate column) was 78.1%, the Inhibition (wild-type EGFR; concentration 30000 nM, one value per replicate column, 30 µM) was 77.5547 and the A450 (wild-type EGFR; concentration 0.0001 nM) was 0.787 and 0.697. The A450 (wild-type EGFR; concentration 0.03 nM) was 0.757 and 0.669, the A450 (wild-type EGFR; concentration 0.3 nM) was 0.715 and 0.637 and the A450 (wild-type EGFR; concentration 3 nM) was 0.688 and 0.637. The A450 (wild-type EGFR; concentration 30 nM) was 0.654 and 0.635, the A450 (wild-type EGFR; concentration 300 nM) was 0.557 and 0.478 and the A450 (wild-type EGFR; concentration 3000 nM) was 0.545 and 0.433. For the same molecule, the A450 (wild-type EGFR; concentration 30000 nM) was 0.295 and 0.272, the melting point was 105 to 108 °C and the Inhibitory efficacy (A549 cells; [1]) was 0.3506 and 0.4374. The Inhibitory efficacy (A549 cells; [2]) was 0.4836 and 0.5124, the Inhibitory efficacy (A549 cells; [3]) was 0.5136 and 0.5055 and the Inhibitory efficacy (A549 cells; [4]) was 0.5695 and 0.5326. For the same molecule, the Inhibitory efficacy (A549 cells; [5]) was 0.5501 and 0.5711, the IC50 (A549 cells; Homo sapiens, A549, 48 h, read-out: IC50 (μM) A549, CCK-8, 48 h, average ± SD of three independent experiments) was 3.77 ± 0.68 µM and the inhibition at 1 µM (A549 cells; Homo sapiens, A549, read-out: Inhibitory efficacy, A549 cells, 1uM, given as fraction, Repeat 1-3) was 35.9%. The inhibition at 2 µM (A549 cells; Homo sapiens, A549, read-out: Inhibitory efficacy, A549 cells, 2uM, given as fraction, Repeat 1-3) was 51.4%, the inhibition at 4 µM (A549 cells; Homo sapiens, A549, read-out: Inhibitory efficacy, A549 cells, 4uM, given as fraction, Repeat 1-3) was 50.2% and the inhibition at 8 µM (A549 cells; Homo sapiens, A549, read-out: Inhibitory efficacy, A549 cells, 8uM, given as fraction, Repeat 1-3) was 55.8%. The inhibition at 16 µM (A549 cells; Homo sapiens, A549, read-out: Inhibitory efficacy, A549 cells, 16uM, given as fraction, Repeat 1-3) was 59%, the IC50 (PC-9 cells; Homo sapiens, PC-9, 48 h, read-out: IC50 (μM) PC-9) was over 100 µM and the inhibition at 4 µM (PC-9 cells; Homo sapiens, PC-9, read-out: Inhibitory efficacy, PC-9, 4uM, single repeats (Repeat 1-3), given as fraction) was 11.7%. The inhibition at 16 µM (PC-9 cells; Homo sapiens, PC-9, read-out: Inhibitory efficacy, PC-9, 16uM, single repeats (Repeat 1-3), given as fraction) was 13.3%, the Inhibitory efficacy (PC-9 cells; PC-9, 4uM, 4 µM) was 0.1333 and 0.0912 and the Inhibitory efficacy (PC-9 cells; PC-9, 16uM, 16 µM) was 0.1218 and 0.1916. The Inhibitory efficacy (H460 cells; [2]) was 0.07707 and 0.09653, the Inhibitory efficacy (H460 cells; [4]) was 0.3228 and 0.2533 and the Inhibitory efficacy (H460 cells; [5]) was 0.4853 and 0.4952. It also gave an IC50 (H460 cells; Homo sapiens, NCI-H460, 48 h, read-out: IC50 (μM) H460, CCK-8, 48 h, average ± SD of three independent experiments) of 15 ± 2.1 µM, an inhibition at 2 µM (H460 cells; Homo sapiens, NCI-H460, read-out: Inhibitory efficacy, H460 cells, 2uM, given as fraction, Repeat 1-3) of 6.52% and an inhibition at 8 µM (H460 cells; Homo sapiens, NCI-H460, read-out: Inhibitory efficacy, H460 cells, 8uM, given as fraction, Repeat 1-3) of 25.3%. The inhibition at 16 µM (H460 cells; Homo sapiens, NCI-H460, read-out: Inhibitory efficacy, H460 cells, 16uM, given as fraction, Repeat 1-3) was 60.6%.
